Positions of bridges follow the written chain, without caps; N, C: chain ends. Non-standard residues stand in square brackets, D forms with d. Residues, ends and D or L forms follow the SMILES beside them. Phe(4-NH2) = Nc1ccc(C[C@H](N)C(=O)O)cc1; Gly(octyl) = CCCCCCCC[C@H](N)C(=O)O; Sar = CNCC(=O)O
Legend:
Format in all cases: cell-based
[1] = target: T1, human Oxytocin (OTR) receptor (Homo sapiens, UniProt P30559); test: Calcium flux assay (FLIPR), agonist mode, CHO cells expressing human OTR; details: for EC50: CHO cells stably expressing human OTR, calcium flux, read-out: hOT EC50; for hOT efficacy (%) / Emax: maximum response normalized to endogenous full agonist = 100%; for Emax: CHO, read-out: hOT efficacy (%)
T1 construct: expressed in transfected cells
T1 sequence (P30559 1-389): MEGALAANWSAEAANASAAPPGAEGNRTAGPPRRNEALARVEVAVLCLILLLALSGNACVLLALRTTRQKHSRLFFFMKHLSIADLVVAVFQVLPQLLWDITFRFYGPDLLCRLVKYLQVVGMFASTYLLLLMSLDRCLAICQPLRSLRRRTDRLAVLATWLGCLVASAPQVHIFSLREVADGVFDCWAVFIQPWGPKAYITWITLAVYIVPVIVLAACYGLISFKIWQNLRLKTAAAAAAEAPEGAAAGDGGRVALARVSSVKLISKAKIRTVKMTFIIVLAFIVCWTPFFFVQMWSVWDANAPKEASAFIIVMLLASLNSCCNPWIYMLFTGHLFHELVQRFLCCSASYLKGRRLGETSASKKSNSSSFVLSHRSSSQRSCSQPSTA
Description: (§1) Chines Hamster Ovary (CHO) cells were transfected with expression plasmids encoding either the human V1a, the human Oxytocin (OTR) or the humanV2 receptor, the later in combination with the chimeric Gqs5 G protein to redirect the signal to Calcium flux. Stable cells were cloned by limiting dilution to yield monoclonal cell lines expressing either human V1a, human V2+Gqs5 or human OTR receptors and selected based on functional responses detected on a fluorometric imaging plate reader (FLIPR) detecting Calcium flux in the cell after receptor activation.
On the afternoon before the assay, cells were plated at a density of 50,000 cells/well into black 96 well plates with clear bottoms to allow cell inspection and fluorescence measurements from the bottom of each well. The density of cells was sufficient to yield a confluent monolayer the next day. Hanks balanced salt solution, without phenol red, containing 20 mM HEPES (pH 7.3) and 2.5 mM probenecid (assay buffer) was prepared fresh for each experiment. Compound dilutions were made using a Beckman Biomek 2000 laboratory automation workstation, in assay buffer containing 1% DMSO. The dye-loading buffer consisted of a final concentration of 2 μM Fluo-4-AM (dissolved in DMSO and pluronic acid) in assay buffer. […] Once dye-loaded, the cells were washed thoroughly on an Embla cell washer with the assay buffer to remove any unincorporated dye. Exactly 100 μl assay buffer was left in each well.
Each 96 well plate containing dye-loaded cells was placed into the FLIPR machine and the laser intensity set to a suitable level to detect low basal fluorescence. To test compounds as agonists, 25 μl diluted compound was added to the plate 10 seconds into the fluorescent measurements and fluorescent response was recorded for 5 minutes. The fluorescence data was normalized to the endogenous full agonist dose-response set at 100% for the maximum response and 0% for the minimum. […] The concentration of agonist that produced a half-maximal response is represented by the EC50 value, the logarithm of which yielded the pEC50 value.

human V1a receptor = target: T2, human V1a receptor (Homo sapiens, UniProt P37288); test: Calcium flux assay (FLIPR), agonist mode, CHO cells expressing human V1a; details: CHO cells stably expressing human V1a; calcium flux; read-out: hV1a EC50
T2 construct: expressed in transfected cells
Description: as §1, with “activation. The stable cell lines were grown in F-12 K Nutrient Mixture (Kaighns Modification), containing 10% foetal bovine serum (FBS), 1% penicillin-streptomycin, 1% L-glutamate, 200 ug/ml Geneticin at 37° C. in a 10% CO2 incubator at 95% humidity.” for “activation.”
(§2) On the afternoon before the assay, cells were plated at a density of 50,000 cells/well into black 96 well plates with clear bottoms to allow cell inspection and fluorescence measurements from the bottom of each well. The density of cells was sufficient to yield a confluent monolayer the next day. Hanks balanced salt solution, without phenol red, containing 20 mM HEPES (pH 7.3) and 2.5 mM probenecid (assay buffer) was prepared fresh for each experiment. Compound dilutions were made using a Beckman Biomek 2000 laboratory automation workstation, in assay buffer containing 1% DMSO. The dye-loading buffer consisted of a final concentration of 2 μM Fluo-4-AM (dissolved in DMSO and pluronic acid) in assay buffer. The existing culture media was removed from the wells and 100 μl of the dye-loading buffer was added to each well and incubated for approximately 60 min at 37° C. in a 5% CO2 incubator at 95% humidity. Once dye-loaded, the cells were washed thoroughly on an Embla cell washer with the assay buffer to remove any unincorporated dye. Exactly 100 μl assay buffer was left in each well.
(§3) Each 96 well plate containing dye-loaded cells was placed into the FLIPR machine and the laser intensity set to a suitable level to detect low basal fluorescence. To test compounds as agonists, 25 μl diluted compound was added to the plate 10 seconds into the fluorescent measurements and fluorescent response was recorded for 5 minutes. The fluorescence data was normalized to the endogenous full agonist dose-response set at 100% for the maximum response and 0% for the minimum. Each agonist concentration-response curve was constructed using a four parameter logistic equation with Microsoft Excel XLFit as follows: Y=Minimum+((Maximum−Minimum)/(1+10^(Log EC50-X)nH)), where y is the % normalized fluorescence, minimum is the minimum y, maximum is the maximum y, log EC50 is the log10 concentration which produces 50% of the maximum induced fluorescence, x is the log10 of the concentration of the agonist compound and H is the slope of the curve (the Hill Coefficient). The maximum value gives the efficacy of the agonist test compound in percentage. The concentration of agonist that produced a half-maximal response is represented by the EC50 value, the logarithm of which yielded the pEC50 value.

human V2 receptor = target: T3, human V2 receptor (Homo sapiens, UniProt P30518); test: Calcium flux assay (FLIPR), agonist mode, CHO cells expressing human V2 + Gqs5; details: CHO; maximum response normalized to endogenous full agonist = 100%; read-out: hV2 efficacy (%)
T3 construct: expressed in transfected cells
Description: as §1, with “activation. The stable cell lines were grown in F-12 K Nutrient Mixture (Kaighns Modification), containing 10% foetal bovine serum (FBS), 1% penicillin-streptomycin, 1% L-glutamate, 200 ug/ml Geneticin at 37° C. in a 10% CO2 incubator at 95% humidity.” for “activation.”
as §2, §3

T2 sequence (P37288 whole entry): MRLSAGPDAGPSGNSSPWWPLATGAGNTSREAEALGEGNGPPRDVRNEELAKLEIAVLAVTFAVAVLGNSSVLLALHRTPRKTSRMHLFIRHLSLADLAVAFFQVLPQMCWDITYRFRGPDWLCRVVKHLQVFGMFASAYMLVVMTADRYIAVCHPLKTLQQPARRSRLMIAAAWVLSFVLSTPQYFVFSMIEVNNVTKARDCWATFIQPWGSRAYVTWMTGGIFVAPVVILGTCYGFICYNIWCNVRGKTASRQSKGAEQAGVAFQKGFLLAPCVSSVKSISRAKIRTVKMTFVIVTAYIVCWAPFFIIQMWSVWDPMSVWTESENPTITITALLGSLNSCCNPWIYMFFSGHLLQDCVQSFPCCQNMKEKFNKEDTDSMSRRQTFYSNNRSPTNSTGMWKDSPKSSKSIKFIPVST
T3 sequence (P30518 whole entry): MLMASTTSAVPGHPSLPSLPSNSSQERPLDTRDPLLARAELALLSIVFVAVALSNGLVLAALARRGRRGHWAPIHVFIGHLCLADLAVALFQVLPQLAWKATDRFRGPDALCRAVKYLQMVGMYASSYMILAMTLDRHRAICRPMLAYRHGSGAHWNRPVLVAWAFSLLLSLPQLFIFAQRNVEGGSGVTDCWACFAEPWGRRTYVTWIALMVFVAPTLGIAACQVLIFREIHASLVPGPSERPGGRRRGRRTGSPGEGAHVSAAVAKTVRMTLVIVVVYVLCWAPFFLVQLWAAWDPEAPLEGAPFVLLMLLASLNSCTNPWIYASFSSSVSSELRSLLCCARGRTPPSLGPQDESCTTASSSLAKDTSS

EC50 [1] [nM]	hOT efficacy (%) [1] [%]	EC50 (human V1a receptor) [nM]	Emax (human V2 receptor) [%]	Emax [1] [%]	SMILES
11	95	> 27000			CC[C@H](C)[C@@H]1NC(=O)[C@H](Cc2ccc(O)cc2)NC(=O)CNC(=O)CC[C@@H](C(=O)NCC(=O)N[C@@H](CC(C)C)C(=O)NCC(N)=O)NC(=O)[C@H](CC(N)=O)NC(=O)[C@H](CCC(N)=O)NC1=O [Example 6] (GYIQNEGLG-NH2; lactam N-6)
17	91	> 2700			CC[C@H](C)[C@@H]1NC(=O)[C@H](Cc2ccc(N)cc2)NC(=O)CNC(=O)CC[C@@H](C(=O)N2CCC[C@H]2C(=O)N[C@@H](CC(C)C)C(=O)NCC(N)=O)NC(=O)[C@H](CC(N)=O)NC(=O)[C@H](CCC(N)=O)NC1=O [Example 10] (G[Phe(4-NH2)]IQNEPLG-NH2; lactam N-6)
11	94	> 27000			CC[C@H](C)[C@@H]1NC(=O)[C@H](Cc2ccc(O)cc2)NC(=O)CNC(=O)CC[C@@H](C(=O)N2CCC[C@H]2C(=O)N[C@@H](Cc2ccc(N)cc2)C(=O)NCC(N)=O)NC(=O)[C@H](CC(N)=O)NC(=O)[C@H](CCC(N)=O)NC1=O [Example 11] (GYIQNEP[Phe(4-NH2)]G-NH2; lactam N-6)
52	102	> 12000			CC[C@H](C)[C@@H]1NC(=O)[C@H](Cc2ccc(O)cc2)NC(=O)CNC(=O)CC[C@@H](C(=O)N2CCC[C@H]2C(=O)N[C@H](CC(C)C)C(=O)NCC(N)=O)NC(=O)[C@H](CC(N)=O)NC(=O)[C@H](CCC(N)=O)NC1=O [Example 15] (GYIQNEP[dL]G-NH2; lactam N-6)
30	105	> 12000			CC[C@H](C)[C@@H]1NC(=O)[C@H](Cc2ccc(O)cc2)NC(=O)CNC(=O)CC[C@@H](C(=O)N[C@@H](C)C(=O)N[C@@H](C)C(=O)NCC(N)=O)NC(=O)[C@H](CC(N)=O)NC(=O)[C@H](CCC(N)=O)NC1=O [Example 16] (GYIQNEAAG-NH2; lactam N-6)
45	92	> 12000			CC[C@H](C)[C@@H]1NC(=O)[C@H](Cc2ccc(O)cc2)NC(=O)CNC(=O)CC[C@@H](C(=O)N[C@@H](C)C(=O)N[C@@H](CC(C)C)C(=O)NCC(N)=O)NC(=O)[C@H](CC(N)=O)NC(=O)[C@H](CCC(N)=O)NC1=O [Example 17] (GYIQNEALG-NH2; lactam N-6)
24	91	> 12000			CC[C@H](C)[C@@H]1NC(=O)[C@H](Cc2ccc(O)cc2)NC(=O)CNC(=O)CC[C@@H](C(=O)N2CCC[C@H]2C(=O)N[C@@H](C)C(=O)NCC(N)=O)NC(=O)[C@H](CC(N)=O)NC(=O)[C@H](CCC(N)=O)NC1=O [Example 18] (GYIQNEPAG-NH2; lactam N-6)
			104	111	CC[C@H](C)[C@@H]1NC(=O)[C@H](Cc2ccc(O)cc2)NC(=O)CNC(=O)CC[C@@H](C(=O)N(C)CC(=O)N[C@@H](CCSC)C(=O)NCC(N)=O)NC(=O)[C@H](CC(N)=O)NC(=O)[C@H](CCC(N)=O)NC1=O [Example 35] (GYIQNE[Sar]MG-NH2; lactam N-6)
0.8				134	CCCCCCCC[C@H](NC(=O)CN(C)C(=O)[C@@H]1CCC(=O)NCC(=O)N[C@@H](Cc2ccc(O)cc2)C(=O)N[C@@H]([C@@H](C)CC)C(=O)N[C@@H](CCC(N)=O)C(=O)N[C@@H](CC(N)=O)C(=O)N1)C(=O)NCC(N)=O [Example 54] (GYIQNE[Sar][Gly(octyl)]G-NH2; lactam N-6)
20	104				CC[C@H](C)[C@@H]1NC(=O)[C@H](Cc2ccc(O)cc2)NC(=O)CNC(=O)CC[C@@H](C(=O)N(C)CC(=O)N[C@@H](CC(C)C)C(=O)NCC(N)=O)NC(=O)[C@H](CC(N)=O)NC(=O)[C@H](C(C)C)NC1=O [Example 55] (GYIVNE[Sar]LG-NH2; lactam N-6)

Reference: patent US9868766B2, “Peptides as oxytocin agonists” (Hoffmann-La Roche Inc., priority 2012, dated 2018)
